From patent publication US20170198363A1, “COMPOSITIONS AND METHODS FOR DETECTION OF SMALL MOLECULES” (COLORADO STATE UNIVERSITY RESEARCH FOUNDATION, priority 2015, published 2017)

Columns and labels:
plant cells = test: Progesterone toxicity to plant cells (protoplasts)
degron-G-PRO1-V = target: T1, degron-G-PRO1-V (Saccharomyces cerevisiae, UniProt P0CY08); test: HIS3 reporter growth assay, strain PJ69-4a; format: cell-based, yeast; settings: HIS3 reporter strain PJ69-4a
T1 construct: expressed in transfected cells; host or cells: S. cerevisiae strain PJ69-4a transformed with a p16C (p416CYC) plasmid

yeast = test: Progesterone toxicity to yeast cells
[1] = tested on: plant biosensor (G-DIG1-V-Matα2); test: Induction of the plant biosensor by steroids; format: in vivo, Arabidopsis thaliana; settings: transgenic Arabidopsis
[2] = Progesterone biosensor luciferase assay in plant protoplasts; format: cell-based; settings: 25 μM progesterone, L77F mutation in the Gal4 DBD
[3] = PRO0 binding of progesterone
[4] = cited from earlier work
[5] = cited from earlier work; remark: listed apart in the source

CC(=O)[C@H]1CC[C@H]2[C@@H]3CCC4=CC(=O)CC[C@]4(C)[C@H]3CC[C@]12C [Progesterone, progesterone]
concentration that seems to be toxic to the plant cells (plant cells): 250 µM
stimulation of growth of degron-G-PRO1-V (degron-G-PRO1-V): stimulated
level at which toxic, leading to substantial cell death (yeast): ≥ 100 µM

C[C@H]1O[C@@H](O[C@H]2[C@@H](O)C[C@H](O[C@H]3[C@@H](O)C[C@H](O[C@H]4CC[C@@]5(C)[C@H](CC[C@@H]6[C@@H]5C[C@@H](O)[C@]5(C)[C@@H](C7=CC(=O)OC7)CC[C@]65O)C4)O[C@@H]3C)O[C@@H]2C)C[C@H](O)[C@@H]1O [digoxin]
induction of the plant biosensor [1]: capable of inducing

B1: PRO2: progesterone binding sensor protein, SEQ ID NO:17, tested as TF-biosensor in plant protoplasts (protein)
chain: MNAKEIVVHSLRLLENGDARGWSDLFHPEGVLEFPYAPPGHKTRFEGRETIWAHMRLFPEYVTVRFTDVQFYETADPDLAIGEFHGDGVLTASGGMLAFDFIAVWRTRDGQILQYRVFYNPLRELEALGGVEAAAKIVQGAGSLE
increase in luciferase expression over background levels [2]: ~3 fold

B2: PRO0: progesterone binder from three rationally designed binding site mutations in DIG0; SEQ ID NO:13 (protein)
chain: MNAKEIVVHSLRLLENGDARGWSDLFHPEGVLEFPYAPPGHKTRFEGRETIWAHMRLFPEYVTVRFTDVQFYETADPDLAIGEFHGDGVLTASGGKLAFDFIAVWRTRDGQILLYRVFFNPLRVLEALGGVEAAAKIVQGAGSLE
affinity for progesterone [3]: nanomolar

B3: DIG10.3 (protein)
chain: MNAKEIVVHSLRLLENGDARGWSDLFHPEGVLEYPYAPPGHKTRFEGRETIWAHMRLFPEYVTVRFTDVQFYETADPDLAIGEFHGDGVLTASGGKLAYDYIAVWRTRDGQILLYRVFFNPLRVLEALGGVEAAAKIVQGAGSLE
affinity for digoxigenin [4]: picomolar
affinity for digoxin [5]: picomolar
